The record followed here is patent US8642630B2, “Endogeneous repair factor production accelerators” (Ono Pharmaceutical Co., Ltd., priority 2002, dated 2014).

One experiment relates to HGF. Description: Endogenous repair factor releasing action (in vitro), HGF by ELISA, Example 10. Type of experiment: cell-based, human. The settings on record: 100 nmol/l; for HGF concentration in culture supernatant: after 72 hours of culturing, average of 3 wells ± SD; for HGF concentration in supernatants, in words: vs untreated, Dunnett's test. The method, then:
(§1) An angiogenesis kit (manufactured by Kurabo; constituted from normal human umbilical cord vein vascular endothelial cells and normal human skin fibroblasts) was cultured for 3 hours, and then the culture medium (the medium for angiogenesis use attached to the angiogenesis kit was used as the culture medium and cultured at 37° C. under a moist environment of 5% carbon dioxide-95% air, and a carbon dioxide incubator BNA-121D was used as the incubator) was changed and an agent to be tested was added to each well (0.5 ml/well). HGF and VEGF concentrations in the culture supernatants were measured 3 days after the commencement of the culturing. Kinds and concentrations of the agent to be tested were untreated; DMSO: 0.1%; PGE1-αCD: 100 nmol/l; PGE2-αCD: 100 nmol/l; and Compound 3 (EP2 agonist) and Compound 4 (EP4 agonist): 100 nmol/l, and the culturing was carried out by using 3 wells for each concentration. The HGF and VEGF concentrations were measured by using an ELISA kit (R % D system-Funakoshi).
(§2) In this connection, Compound 3 as an EP2 agonist ((5Z,9β,11α,13E)-17,17-propano-11,16-dihydroxy-9-chloro-20-norprost-5,13-dienoic acid) was dissolved in dimethyl sulfoxide (DMSO) to prepare a 10^−4 mol/l solution which was then used by diluting 1/1000 time with the culture medium.
(§3) Compound 4 as an EP4 agonist ((11α,13E,15α)-9-oxo-11,15-dihydroxy-16-(3-methoxymethylphenyl)-17,18,19,20-tetranor-5-thiaprost-13-enoic acid) was dissolved in dimethyl sulfoxide (DMSO) to prepare a […] solution which was then used by diluting 1/1000 time with the culture medium.
(§4) The PGE1-αCD and PGE2-αCD were dissolved in distilled water for injection to prepare 10^−4 mol/l solutions which were then used by diluting 1/1000 time with the culture medium.
(§5) HGF and VEGF concentrations in the supernatants of the solvent control group were compared with those of the agent-treated groups by Dunnett's test (two-sided test). The significance level was set to 5%.
(§6) In this connection, the data were shown by average value of 3 wells and standard deviation.
(ELISA stands for enzyme-linked immunosorbent assay.)

Experiment [1] relates to mouse sponge transplantation model. Kind of experiment: Angiogenesis test using mouse sponge transplantation model, Example 8. The conditions noted are these: 14 days of repeated administration. Type of experiment: in vivo. The method, then:
Under anesthesia, dorsal part of a mouse was incised and a discus urethane sponge (about 5 mm in thickness and 13 mm in diameter) was embedded therein. Administration of the agent was carried out by topically administering it directly into the sponge once a day for a total of 14 times starting on the day of the sponge transplantation model preparation, or on the operation-completed day and 7th day thereafter. On the 15th day after the sponge transplantation, the sponge containing granulation tissue was extracted and observed with the naked eye, and then its wet mass was measured. In addition, this was mixed with distilled water of 4 times larger amount than the wet mass, homogenized and centrifuged, and then the supernatant was subjected to the measurement of the hemoglobin content using Hemoglobin 13-Test Wako (manufactured by Wako Pure Chemical Industries).
• The polylactic acid-glycolic acid copolymer used in Preparation Example 2 was suspended in 0.2 w/v % Tween 80 solution (0.05 ml). In this connection, amount of the polylactic acid-glycolic acid copolymer is identical to the amount contained in Compound 1 MS (200 μg). Compound 1 (20 μg) Group: • Compound 1 (20 μg) was suspended in 0.2 w/v % Tween 80 solution (0.05 ml). Compound 1 (40 μg) Group:
Compound 1 (40 μg) was suspended in 0.2 w/v % Tween 80 solution (0.05 ml).
• Compound 1 (200 μg) was suspended in 0.2 w/v % Tween 80 solution (0.05 ml). Compound 1 MS (200 μg) group: • The microsphere preparation produced in Preparation Example 2 containing […] of Compound 1 was suspended in 0.2 w/v % Tween 80 solution (0.05 ml). Compound 1 MS (400 μg) Group: • The microsphere preparation produced in Preparation Example 2 containing 400 μg of Compound 1 was suspended in 0.2 w/v % Tween 80 solution (0.05 ml). Compound 3 (20 μg) Group: • Compound 3 (20 μg) was suspended in 0.2 w/v % Tween 80 solution (0.05 ml).

Experiment [2] relates to normal human umbilical cord vein vascular endothelial cells and normal human skin fibroblasts. Description: Measurement of angiogenesis acceleration action (in vitro), hollow organ formation, Example 9. Type of experiment: cell-based. The conditions noted are these: 10 days of culturing, FIG. 5. The method, then: An angiogenesis kit (manufactured by Kurabo; constituted from normal human umbilical cord vein vascular endothelial cells and normal human skin fibroblasts) was cultured for 3 hours, and then the culture medium (the medium for angiogenesis use attached to the angiogenesis kit was used as the culture medium and cultured at 37° C. under a moist environment of 5% carbon dioxide-95% air, and a carbon dioxide incubator BNA-121D was used as the incubator) was changed and an agent to be tested was added to each well (0.5 ml/well). The medium exchange was carried out also on the 3rd, 6th and 8th days after commencement of the culturing and the fresh agent to be tested was added. The kind and concentration of the agent to be tested were untreated; DMSO: 0.1%; α-CD: 0.0118, 0.118 and 1.18 mg/ml; PGE2-αCD: 1, 10 and 100 nmol/l; Compound 3 (EP2 agonist), Compound 4 (EP4 agonist), EP1 agonist and EP3 agonist: 1, 10 and 100 nmol/l, VEGF: 0.1, 1 and 10 ng/ml; and HGF: 0.1, 1 and 10 ng/ml, and culturing was carried out by using 3 wells for each concentration. Fixation was carried out 10 days after the commencement of culturing, and staining of hollow organ with anti-CD31 antibody was carried out by using a hollow organ staining kit (manufactured by Kurabo). As the evaluation, Chalkley Grid (a grid lens, Kurabo) was mounted on the eyepiece of a microscope, and the hollow organ formation was evaluated by counting intersections of the randomly arrange points of Chalkley Grid with the formed hollow organ (by referring to the evaluation method of J. Pathol., 177, 275-283 (1995)). The counting was carried out at 12 positions per well, and the total was calculated.
In this connection, Compound 3 as an EP2 agonist ((5Z,9β,11α,13E)-17,17-propano-11,16-dihydroxy-9-chloro-20-norprost-5,13-dienoic acid) was dissolved in dimethyl sulfoxide (DMSO) to prepare 10^−4, 10^−5 and 10^−6 mol/l solutions which were then used by diluting 1/1000 time with the culture medium.
Compound 4 as an EP4 agonist ((11α,13E,15α)-9-oxo-11,15-dihydroxy-16-(3-methoxymethylphenyl)-17,18,19,20-tetranor-5-thiaprost-13-enoic acid) was dissolved in dimethyl sulfoxide (DMSO) to prepare 10^−4, 10^−5 and 10^−6 mol/l solutions which were then used by diluting 1/1000 time with the culture medium.
The EP1 agonist ((13E)-(11α,15S,17S)-2,5-ethano-6,9-dioxo-11,15-dihydroxy-17,20-dimethylprost-13-enoic acid; the compound described in Example 1 in the specification of JP-A-11-322709) was dissolved in dimethyl sulfoxide (DMSO) to prepare 10^−4, 10^−5 and 10^−6 mol/l solutions which were then used by diluting 1/1000 time with the culture medium.
The EP3 agonist (11α,15α-dimethoxy-9-oxoprost-5Z,13E-dienoic acid; the compound described in Example 1 in the specification of WO98/34916) was dissolved in dimethyl sulfoxide (DMSO) to prepare 10^−4, 10^−5 and 10^−6 mol/l solutions which were then used by diluting 1/1000 time with the culture medium.
The PGE2-αCD was dissolved in distilled water for injection to prepare 10^−4, 10^−5 and 10^−6 mol/l solutions which were then used by diluting 1/1000 time with the culture medium.
As the VEGF (vascular endothelial growth factor), the 2 μg/ml solution of VEGF contained in the angiogenesis control reagent kit of Kurabo was diluted with the culture medium and used.
As the HGF (human hepatocyte growth factor), the 5 μg/ml solution of HGF purchased from R & D System-Funakoshi was diluted with the culture medium and used.
The counts of hollow organ formation in the untreated wells were compared with those of the wells treated with respective concentrations of test samples by Dunnett's test (two-sided test). The significance level was set to 5%.
as §6

A further experiment concerns VEGF. Kind of experiment: Endogenous repair factor releasing action (in vitro), VEGF by ELISA, Example 10. Type of experiment: cell-based, human. The conditions noted are these: 100 nmol/l; for VEGF concentration in culture supernatant: after 72 hours of culturing, average of 3 wells ± SD; for VEGF concentration in supernatants, in words: vs untreated, Dunnett's test. The method, then:
as §1, §2, §3, §4, §5, §6

Setting [3] is: 20 μg into the sponge once a day, 15th day.
[4] abbreviates: 10 nmol/l and 100 nmol/l, vs untreated wells, Dunnett's test.

For `CCC1(C(O)C/C=C/[C@@H]2[C@@H](C/C=C\CCCC(=O)O)[C@H](Cl)C[C@H]2O)CCC1` (stereo partly drawn) [Compound 3, (5Z,9β,11α,13E)-17,17-propano-11,16-dihydroxy-9-chloro-20-norprost-5,13-dienoic acid], in the experiment on HGF, the “HGF concentration in culture supernatant” value stood at 1865 ± 48 pg/mL; the “HGF concentration in supernatants, in words” value is “significantly increased HGF and VEGF concentrations”. In experiment [1] (setting [3]), this molecule came in with a Hemoglobin content of 4.588 ± 0.488 mg/g wet tissue and a Sponge wet weight of 0.5193 ± 0.0792 g. In addition, the “formation of granulation in the sponge, in words” value in experiment [1] (20 μg) is listed as “formation of granulation was found”. The “hemoglobin concentration in the granulation tissue, in words” value in experiment [1] (20 μg, vs polymer group) is “significant increase in the concentration of hemoglobin”. Also, in experiment [2] (setting [4]), the “hollow organ formation (Chalkley Grid count), in words” value (“hollow organ formation” below) was “significantly accelerated hollow organ formation”. Moreover, in the experiment with VEGF, the “VEGF concentration in culture supernatant” value amounted to 2762 ± 51 pg/mL; the “VEGF concentration in supernatants, in words” value was “significantly increased HGF and VEGF concentrations”.
`COCc1cccc(C[C@H](O)/C=C/[C@H]2[C@H](O)CC(=O)[C@@H]2CCSCCCC(=O)O)c1` [Compound 4, (11α,13E,15α)-9-oxo-11,15-dihydroxy-16-(3-methoxymethylphenyl)-17,18,19,20-tetranor-5-thiaprost-13-enoic acid]: in the experiment with HGF, the “HGF concentration in culture supernatant” value is 379 ± 12 pg/mL; the “HGF concentration in supernatants, in words” value was “significantly increased HGF and VEGF concentrations”. Also, the “hollow organ formation” value in experiment [2] (setting [4]) was “significantly accelerated hollow organ formation”. Further, in the experiment on VEGF, the “VEGF concentration in culture supernatant” value is 2936 ± 69 pg/mL; the “VEGF concentration in supernatants, in words” value was “significantly increased HGF and VEGF concentrations”.
For the molecule `CCCC[C@H](C)C[C@H](O)/C=C/[C@H]1[C@H](O)CC(=O)[C@@H]1CC(=O)C1CCC(C(=O)O)CC1` (stereo partly drawn) [EP1 agonist, (13E)-(11α,15S,17S)-2,5-ethano-6,9-dioxo-11,15-dihydroxy-17,20-dimethylprost-13-enoic acid, reference compound], the “hollow organ formation” value in experiment [2] (1, 10 and 100 nmol/l) is listed as “did not exert influence upon hollow organ formation”.
Take `CCCCC[C@@H](/C=C/[C@H]1[C@H](OC)CC(=O)[C@@H]1C/C=C\CCCC(=O)O)OC` [EP3 agonist, 11α,15α-dimethoxy-9-oxoprost-5Z,13E-dienoic acid, reference compound]: the “hollow organ formation” value in experiment [2] (1, 10 and 100 nmol/l) is on record as “did not exert influence upon hollow organ formation”.
On to `OC[C@H]1O[C@@H]2O[C@H]3[C@H](O)[C@@H](O)[C@@H](O[C@H]4[C@H](O)[C@@H](O)[C@@H](O[C@H]5[C@H](O)[C@@H](O)[C@@H](O[C@H]6[C@H](O)[C@@H](O)[C@@H](O[C@H]7[C@H](O)[C@@H](O)[C@@H](O[C@H]1[C@H](O)[C@H]2O)O[C@@H]7CO)O[C@@H]6CO)O[C@@H]5CO)O[C@@H]4CO)O[C@@H]3CO` [α-CD], for which the “hollow organ formation” value in experiment [2] (0.0118, 0.118 and 1.18 mg/ml) is reported as “did not exert influence upon hollow organ formation”.
